Laboratory results: US20080138397A1, “PROCESSES FOR TASTE-MASKING OF INHALED FORMULATIONS” (Aradigm Corporation, priority 2006, published 2008)

Legend:
[1] = oral administration; extensive clearance via first pass metabolism; cited from earlier work
[2] = cited from earlier work
[3] = Human clinical trials of AERx-inhaled HCQ, pharmacokinetics blood sample analysis; type: in vivo; conditions: blood samples
Excerpt: Hydroxychloroquine or HCQ, known as a therapeutic for asthma and other respiratory diseases (U.S. Pat. No. 6,572,858), and administered by the inhalation route, is characterized by unpleasant taste. Formulation of HCQ, either singularly, or in combination, using one or more of the methods described above increases the therapeutic benefit of inhaled HCQ to treat asthma and other respiratory diseases. […] Thus, it would be an improvement to develop a formulation that provides a sustained release of HCQ in the lung, prolonging interaction of HCQ with the desired receptors in the lung tissue. Formulation strategies include encapsulation in liposomes or use of polymeric microspheres or nanospheres that slowly degrade and release HCQ. Other formulation strategies outlined previously can also be envisioned for such a formulation.

Row | absorption from the lung [3] | Compound | oral bioavailability [1] | half-life ([2]; in vivo) [h] | absorption time ([2]; inhalation delivery) | tolerability ([2]; inhalation delivery)
1 | – | CCCc1cc2c(s1)CN[C@@H]1CCc3cc(OC(C)=O)c(OC(C)=O)cc3[C@@H]21 [ABT-431] | less than 4% | 2 to 3 | less than 10 minutes | poor
2 | rapidly absorbed | CCN(CCO)CCCC(C)Nc1ccnc2cc(Cl)ccc12 (centres unmarked) [HCQ, Hydroxychloroquine] | – | – | – | –
